Results: article PMC10709440, “High-throughput ligand profile characterization in novel cell lines expressing seven heterologous insect olfactory receptors for the detection of volatile plant biomarkers” (Scientific Reports, 2023)
Where “and” joins values, the source holds several entries; their conditions need not be identical. Equal values may be shown once. Read-outs that look alike come from different tables or passages of the source.

Tests used:
[1] = test system: OR10a; design: method as in earlier work; conditions: DoOR database value; ref DoOR; cited from earlier work
[2] = target: T1, Drosophila OR13a (Drosophila melanogaster, UniProt Q9VXL0); test: Calcium ion fluorescence (GCaMP6) assay, OR13a stable HEK293 cell line; format: cell-based; design: key to DF norm AVERAGE OR13a: VOC ∆F divided by the plate's mean ∆F response to 50 µM VUAA1; conditions: for dose-response, AVERAGE response: N 3
T1 construct: expressed in transfected cells
T1 sequence (Q9VXL0 1-418): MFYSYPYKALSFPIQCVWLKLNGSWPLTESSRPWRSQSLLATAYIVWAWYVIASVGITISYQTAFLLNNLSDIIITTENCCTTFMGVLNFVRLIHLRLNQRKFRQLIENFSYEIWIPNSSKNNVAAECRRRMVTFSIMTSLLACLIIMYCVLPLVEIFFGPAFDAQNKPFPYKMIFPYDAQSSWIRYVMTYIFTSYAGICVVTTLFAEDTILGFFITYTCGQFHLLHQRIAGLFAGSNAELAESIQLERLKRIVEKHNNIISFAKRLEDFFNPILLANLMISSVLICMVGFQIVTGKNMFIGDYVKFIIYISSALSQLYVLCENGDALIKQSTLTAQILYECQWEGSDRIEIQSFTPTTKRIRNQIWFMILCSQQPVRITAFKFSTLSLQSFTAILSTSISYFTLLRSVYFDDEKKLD
T1 sequence (Q9VNB5 1-486 partner): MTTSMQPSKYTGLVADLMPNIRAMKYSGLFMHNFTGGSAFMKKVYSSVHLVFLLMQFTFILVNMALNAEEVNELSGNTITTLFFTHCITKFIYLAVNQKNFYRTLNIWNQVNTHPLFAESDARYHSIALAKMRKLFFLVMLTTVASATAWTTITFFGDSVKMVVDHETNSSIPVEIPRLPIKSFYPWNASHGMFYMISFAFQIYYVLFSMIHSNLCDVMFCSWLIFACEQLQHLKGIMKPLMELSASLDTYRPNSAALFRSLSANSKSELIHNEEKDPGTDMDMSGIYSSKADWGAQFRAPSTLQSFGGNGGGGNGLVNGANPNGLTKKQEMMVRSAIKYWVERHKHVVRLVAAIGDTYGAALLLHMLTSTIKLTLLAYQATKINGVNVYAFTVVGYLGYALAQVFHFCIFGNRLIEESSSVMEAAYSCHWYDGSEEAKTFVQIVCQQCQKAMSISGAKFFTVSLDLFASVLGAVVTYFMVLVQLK
Procedure: These VUAA1 normalized ∆F values were used to compare the different receptors and ligands.
The concentration-dependent effect of the reference ligands on their cognate cell lines was examined in more detail. Twelve different ligand concentrations were measured on each cell line in an overall 0.01 μM to 100 μM concentration range with 5 repetitions with three technical replicates each time.
Twelve thousand to 18,000 cells were plated into each well of a black wall, transparent bottom 384-well microplate (Greiner) 48 h or 72 h before the measurements and were simultaneously treated with 1 μg/mL doxycycline. […] The plate has 24 columns, thus we could record responses in up to eight different cell lines in each plate. On the day of the experiment, the growth medium was replaced with 20 µL assay buffer/well (140 mM NaCl, 5 mM KCl, 2 mM CaCl2, 1 mM MgCl2, 5 mM HEPES-Na, 20 mM glucose, pH 7.3, 340 mOsm). […] Baseline fluorescence (F0) was recorded for 5 s, after which 7 µL VOC buffer (140 mM NaCl, 5 mM KCl, 2 mM CaCl2, 1 mM MgCl2, 5 mM HEPES-Na, 31 mM glucose, 0.1% DMSO, pH 7.3, 340 mOsm) was injected into each well in one row and the fluorescence response was recorded for an additional 30 s, at a rate of one read/sec. VOC solutions (VOC buffer with 4× concentration of the final measured VOC concentration, 9 µL/well was injected) were measured on the same wells in a second round with the same protocol. Each individual concentration of a specific VOC sample was recorded in three wells for the same cell line on the same microplate. The raw data were exported in xls file format, F0 and FMAX values, and the fluorescence intensity changes (∆F) were calculated in Excel (Microsoft) (Supplementary file Data summary.xlsx) using the following equation: ΔF=FMAX-F0/F0 (see also Fig. 1C). On each plate, we recorded the response of each cell line to 50 µM VUAA1. The average of these ∆F values of each cell line were used to calculate the VUAA1-normalized values for the rest of the plate, by dividing VOC response ∆F values by the average VUAA1 response ∆F value of the corresponding OR cell line. Each VOC-OR combination was measured three times as technical replicates. […] The average of these replicates were used as one ∆F and VUAA1-normalized ∆F in the following analysis.
In the next rows we tested the reference VOCs (or other VOCs known to activate the corresponding cell lines), in order to test if all cell lines are responsive. The remaining rows were used to test VOCs with unknown effect.
The recorded FMAX, F0, ∆F, VUAA1-normalized ∆F values, as well as the OR name, the name of the tested sample, and the final concentration for each well were copied into supplementary file Data summary.xlsx, that was used to summarize all the plates recorded. Here, the averages of the measurements were calculated for each receptor-VOC-concentration combination.

[3] = HEK293, read-out: OR13a Average response (VUAA1-normalized), 1 μM VOC, 50 μM VUAA1 = 1, responses not exceeding 0.05 considered 0
[4] = HEK293, read-out: OR13a Average response (VUAA1-normalized), 10 μM VOC, 50 μM VUAA1 = 1, responses not exceeding 0.05 considered 0
[5] = HEK293, read-out: OR13a Average response (VUAA1-normalized), 100 μM VOC, 50 μM VUAA1 = 1, responses not exceeding 0.05 considered 0
[6] = HEK293, read-out: OR13a response (VUAA1-normalized response), VOC concentration 1 μM
[7] = HEK293, read-out: OR13a response (VUAA1-normalized response), VOC concentration 10 μM
[8] = HEK293, read-out: OR13a response (VUAA1-normalized response), VOC concentration 100 μM
[9] = ligand concentration 1 (unit not given), threshold 0.05, below shown as 0
[10] = ligand concentration 10 (unit not given), threshold 0.05, below shown as 0
[11] = ligand concentration 100 (unit not given), threshold 0.05, below shown as 0
[12] = 1 μM VOC, 50 μM VUAA1 = 1, responses not exceeding 0.05 considered 0
[13] = 10 μM VOC, 50 μM VUAA1 = 1, responses not exceeding 0.05 considered 0
[14] = 100 μM VOC, 50 μM VUAA1 = 1, responses not exceeding 0.05 considered 0
[15] = HEK293, read-out: OR13a Average response (VUAA1-normalized)
[16] = HEK293, read-out: OR13a response (VUAA1-normalized response)
[17] = the 13th table, VOC concentration 2.5
[18] = the 13th table, VOC concentration 5
[19] = the 13th table, VOC concentration 25
[20] = the 13th table, VOC concentration 50
[21] = the 13th table, VOC concentration 100

## CCCCCCCCCC=O [decanal]
[1]
  OR10a DoOR response: 0.08
[2]; [3]
  activation at 1 µM: 0%
[2]; [4]
  activation at 10 µM: 0%
[2]; [5]
  activation at 100 µM: 0%
[2]; [6]
  activation at 1 µM: 0%
[2]; [7]
  activation at 10 µM: 0%
[2]; [8]
  activation at 100 µM: 0%
[2]; [9]
  DF norm AVERAGE OR13a: 0
[2]; [10]
  DF norm AVERAGE OR13a: 0
[2]; [11]
  DF norm AVERAGE OR13a: 0

## CC/C=C/CCO [e3-hexenol]
[2]; [12]
  OR13a Average response (VUAA1-normalized): 0.00
[2]; [13]
  OR13a Average response (VUAA1-normalized): 0.00
[2]; [14]
  OR13a Average response (VUAA1-normalized): 0.07
[2]; [9]
  DF norm AVERAGE OR13a: 0
[2]; [10]
  DF norm AVERAGE OR13a: 0
[2]; [11]
  DF norm AVERAGE OR13a: 0.07115

## CCc1ccccc1 [ethylbenzene]
[2]; [15]
  activation at 1 µM: 1.44%
  activation at 10 µM: 1.55%
  activation at 100 µM: 0%
[2]; [16]
  activation at 1 µM: 0%
  activation at 10 µM: 0%
  activation at 100 µM: 0%
[2]; [9]
  DF norm AVERAGE OR13a: 0
[2]; [10]
  DF norm AVERAGE OR13a: 0
[2]; [11]
  DF norm AVERAGE OR13a: 0

## CC/C=C\CCO [Z3-hexenol]
[2]; [12]
  OR13a Average response (VUAA1-normalized): 0.04
[2]; [13]
  OR13a Average response (VUAA1-normalized): 0.06
[2]; [14]
  OR13a Average response (VUAA1-normalized): 0.00
[2]; ligand concentration 1 (unit not given), 0.05 threshold, values below shown as 0
  DF norm AVERAGE OR13a: 0
[2]; ligand concentration 10 (unit not given), 0.05 threshold, values below shown as 0
  DF norm AVERAGE OR13a: 0.05798
[2]; ligand concentration 100 (unit not given), 0.05 threshold, values below shown as 0
  DF norm AVERAGE OR13a: 0

## C=CC(O)C/C=C\CC (stereo not shown) [(5Z)-octa-1,5-dien-3-ol]
[2]; EC50, fitted average curve, the 13th table, fit to the average curve, n 0.854956
  EC50: 7.19 µM
[2]; EC50, fitted parameter per biological replicate, the 13th table, OR13a D-R (5Z)-octa-1,5-dien-3-ol, individual replicate fits, MIN 0, n 1
  EC50: 9.97 µM and 3 µM and 5.85 µM
[2]; EC50, fitted parameter per biological replicate, the 13th table, individual replicate fits
  EC50: 9.97 µM and 3 µM and 5.85 µM
[2]; [3]
  activation at 1 µM: 0%
[2]; [4]
  activation at 10 µM: 15%
[2]; [5]
  activation at 100 µM: 37%
[2]; [6]
  activation at 1 µM: 0%
[2]; [7]
  activation at 10 µM: 15%
[2]; [8]
  activation at 100 µM: 37%
[2]; concentration 1, normalized fluorescence change, values below 0.05 threshold given as 0
  DF norm AVERAGE OR13a: 0
[2]; concentration 10, normalized fluorescence change, values below 0.05 threshold given as 0
  DF norm AVERAGE OR13a: 0.1531
[2]; concentration 100, normalized fluorescence change, values below 0.05 threshold given as 0
  DF norm AVERAGE OR13a: 0.3701
[2]; [17]
  dose-response, response per biological replicate: 0 and 0.07532 and 0.2134
  dose-response, AVERAGE response: 0.09623
[2]; [18]
  dose-response, response per biological replicate: 0.1122 and 0.07908 and 0.2962
  dose-response, AVERAGE response: 0.1625
[2]; [19]
  dose-response, response per biological replicate: 0.1336 and 0.1252 and 0.4462
  dose-response, AVERAGE response: 0.235
[2]; [20]
  dose-response, response per biological replicate: 0.1449 and 0.1487 and 0.5376
  dose-response, AVERAGE response: 0.2771
[2]; [21]
  dose-response, response per biological replicate: 0.2093 and 0.133 and 0.6441
  dose-response, AVERAGE response: 0.3288
[2]; the 13th table, fit to the average curve, n 0.854956
  MAX, fitted average curve: 0.3433
[2]; the 13th table, individual replicate fits
  MAX, fitted parameter per biological replicate: 0.2031 and 0.1439 and 0.6228 and 0.37
